For 19 compounds, Concentration and TPO activity results are on record in patent US6887890B2, “Compounds exhibiting thrombopoietin-like activities” (Chugai Seiyaku Kabushiki Kaisha, priority 2000, dated 2005).

Structures are written as SMILES.

In the assay the test system is Mpl-expressing Ba/F3 cell line (human mpl gene). The assay is described as follows: Measurement of thrombopoietin (TPO) activity: viable cell count of Mpl-expressing Ba/F3 cell line (Cell Count Reagent SF, absorbance 450 nm). The assay is classed as cell-based. Particulars: for Concentration: concentration corresponding to the maximum TPO activity value; for TPO activity: maximum TPO activity value, ODt/ODs×100 relative to maximum reaction of human TPO, Mpl-expressing Ba/F3 cells cultured at 37° C. for one day, at the concentration given. How it is done: The TPO activities of the compounds of the invention obtained in the aforementioned examples were measured by the procedure described below, for evaluation of their thrombopoietic effects.
Establishment of Mpl-expressing Ba/F3 Cell Line
The human mpl gene was cloned from cDNAs of the human erythroleukemia cell line HEL by PCR, and was incorporated into pCOS1 to construct an expression vector. The expression vector was transfected into Ba/F3 cells by electroporation method, and an Mpl-expressing Ba/F3 clone was established.
Measurement of Thrombopoietin (TPO) Activity
The cytokine-eliminated Mpl-expressing Ba/F3 line was plated in a 96-well plate at 25,000 cells/well. DMSO solutions containing the compounds obtained in each of the examples were then prepared to different specified concentration ranges, and each solution was added to the Mpl-expressing Ba/F3 cell line (final DMSO concentration: ≦0.1%), and the cell were cultured at 37° C. for one day. Human TPO (by R&D Systems or Genzyme) was used as a positive control.
Each of the cultured Mpl-expressing Ba/F3 cell lines was subjected to absorbance measurement at a wavelength of 450 nm (reference wavelength: 620 nm), corresponding to the viable cell count, using Cell Count Reagent SF (by Nacalai Tesque Inc.). The TPO activity of each compound for the Mpl-expressing Ba/F3 cell line was determined based on the following formula. TPO activity (%)=ODt/ODs×100
ODs: Absorbance at maximum reaction of human TPO (wavelength: 450-620 nm).
ODt: Absorbance of test solution (wavelength: 450-620 nm).
Tables 1 and 2 show the maximum TPO activity values and the corresponding concentrations of each compound, as obtained by the test described above.

For the compound `Cc1[nH]c2ccccc2c1CC(=O)N[C@H](CCCNC(=N)N)C(=O)Nc1ccc(C(c2ccc(NC(=O)[C@@H](CCCNC(=N)N)NC(=O)Cc3c(C)[nH]c4ccccc34)cc2)c2ccc(NC(=O)[C@@H](CCCNC(=N)N)NC(=O)Cc3c(C)[nH]c4ccccc34)cc2)cc1.Cl` (stereo partly drawn) [Example 39, tris[4-[N-α-[2-(2-methyl-1H-indol-3-yl)acetyl]-D-arginyl]aminophenyl]methane hydrochloride], the Concentration came to 12.5 µM and the TPO activity turned out to be 80.4%.

Take `Cl.NCCCC[C@H](NC(=O)c1cccnc1)C(=O)Nc1ccc(C(c2ccc(NC(=O)[C@H](CCCCN)NC(=O)c3cccnc3)cc2)c2ccc(NC(=O)[C@H](CCCCN)NC(=O)c3cccnc3)cc2)cc1` [Example 17, tris[4-[N-α-(3-pyridylcarbonyl)-L-lysyl]aminophenyl]methane hydrochloride]: the Concentration is 50 µM and the TPO activity amounted to 16.5%.

Turning to `Cc1[nH]c2ccccc2c1CC(=O)N[C@@H](CCN)C(=O)Nc1ccc(C(c2ccc(NC(=O)[C@H](CCN)NC(=O)Cc3c(C)[nH]c4ccccc34)cc2)c2ccc(NC(=O)[C@H](CCN)NC(=O)Cc3c(C)[nH]c4ccccc34)cc2)cc1.O=C(O)C(F)(F)F` [Example 132, tris[4-[β-aminomethyl-N-[2-(2-methyl-1H-indol-3-yl)acetyl]-L-alanyl]aminophenyl]methane trifluoroacetate], the Concentration was 50 µM and the TPO activity is 22.3%.

As for `CN(C)CCCC[C@H](NC(=O)Cc1c[nH]c2ccccc12)C(=O)Nc1ccc(C(c2ccc(NC(=O)[C@H](CCCCN(C)C)NC(=O)Cc3c[nH]c4ccccc34)cc2)c2ccc(NC(=O)[C@H](CCCCN(C)C)NC(=O)Cc3c[nH]c4ccccc34)cc2)cc1` [Example 29, tris[4-[N-α-[2-(1H-indol-3-yl)acetyl]-N-εdimethyl-L-lysyl]aminophenyl]methane], the Concentration is 25 µM and the TPO activity amounted to 98.5%.

On to `Cl.NCCCC[C@@H](NC(=O)Cc1ccsc1)C(=O)Nc1ccc(C(c2ccc(NC(=O)[C@@H](CCCCN)NC(=O)Cc3ccsc3)cc2)c2ccc(NC(=O)[C@@H](CCCCN)NC(=O)Cc3ccsc3)cc2)cc1` [Example 23, tris[4-[N-α-[2-(thiophen-3-yl)acetyl]-D-lysyl]aminophenyl]methane hydrochloride], for which the Concentration was found to be 25 µM and the TPO activity came out at 48.0%.

Consider `Cl.NCCCC[C@@H](NC(=O)c1cnccn1)C(=O)Nc1ccc(C(c2ccc(NC(=O)[C@@H](CCCCN)NC(=O)c3cnccn3)cc2)c2ccc(NC(=O)[C@@H](CCCCN)NC(=O)c3cnccn3)cc2)cc1` [Example 157, tris[4-[N-α-(pyrazin-2-yl)carbonyl-D-lysyl]aminophenyl]methane hydrochloride], for which the Concentration stood at 50 µM and the TPO activity is reported as 36.1%.

Regarding `Cl.NCCCSC[C@H](NC(=O)Cc1c[nH]c2ccccc12)C(=O)Nc1ccc(C(c2ccc(NC(=O)[C@H](CSCCCN)NC(=O)Cc3c[nH]c4ccccc34)cc2)c2ccc(NC(=O)[C@H](CSCCCN)NC(=O)Cc3c[nH]c4ccccc34)cc2)cc1` [Example 33, tris[4-[N-[2-(1H-indol-3-yl)acetyl]-S-(3-aminopropyl)-L-cystyl]aminophenyl]methane hydrochloride], the Concentration is 50 µM and the TPO activity is given as 17.4%.

On to `Cl.N=C(N)NCCC[C@H](NC(=O)Cc1ccsc1)C(=O)Nc1ccc(C(c2ccc(NC(=O)[C@H](CCCNC(=N)N)NC(=O)Cc3ccsc3)cc2)c2ccc(NC(=O)[C@H](CCCNC(=N)N)NC(=O)Cc3ccsc3)cc2)cc1` (stereo partly drawn) [Example 38, tris[4-[N-α-[2-(thiophen-3-yl)acetyl]-L-arginyl]aminophenyl]methane hydrochloride], for which the Concentration amounted to 25 µM and the TPO activity turned out to be 124%.

Take `Cl.NCCCC[C@H](NC(=O)Cc1ccc(O)cc1)C(=O)Nc1ccc(C(c2ccc(NC(=O)[C@H](CCCCN)NC(=O)Cc3ccc(O)cc3)cc2)c2ccc(NC(=O)[C@H](CCCCN)NC(=O)Cc3ccc(O)cc3)cc2)cc1` [Example 19, tris[4-[N-α-[2-(4-hydroxyphenyl)acetyl]-L-lysyl]aminophenyl]methane hydrochloride]: the Concentration came out at 50 µM and the TPO activity is 19.1%.

Turning to `Cl.NCCCC[C@H](NC(=O)Cc1c[nH]c2ccccc12)C(=O)Nc1ccc(C(c2ccc(NC(=O)[C@H](CCCCN)NC(=O)Cc3c[nH]c4ccccc34)cc2)c2ccc(NC(=O)[C@H](CCCCN)NC(=O)Cc3c[nH]c4ccccc34)cc2)cc1` [Example 1, tris[4-[N-α-[2-(1H-indol-3-yl)acetyl]-L-lysyl]aminophenyl]methane hydrochloride], the Concentration amounted to 25 µM and the TPO activity was 37.6%.

For the compound `NCCCC[C@@H](NC(=O)c1cccc2cc(O)ccc12)C(=O)Nc1ccc(C(c2ccc(NC(=O)[C@@H](CCCCN)NC(=O)c3cccc4cc(O)ccc34)cc2)c2ccc(NC(=O)[C@@H](CCCCN)NC(=O)c3cccc4cc(O)ccc34)cc2)cc1.O=C(O)C(F)(F)F` [Example 192, tris[4-[N-α-(6-hydroxynaphthalen-1-yl)carbonyl-D-lysyl]aminophenyl]methane trifluoroacetate], the Concentration was 25 µM and the TPO activity stood at 71.3%.

As to `Cc1[nH]c2ccccc2c1CC(=O)N[C@@H](CCCCN)C(=O)Nc1ccc(C(c2ccc(NC(=O)[C@H](CCCCN)NC(=O)Cc3c(C)[nH]c4ccccc34)cc2)c2ccc(NC(=O)[C@H](CCCCN)NC(=O)Cc3c(C)[nH]c4ccccc34)cc2)cc1.Cl` [Example 7, tris[4-[N-α-[2-(2-methyl-1H-indol-3-yl)acetyl]-L-lysyl]aminophenyl]methane hydrochloride], the Concentration was determined as 21 µM and the TPO activity was 24.7%.

Regarding `Cl.N=C(N)NCCC[C@@H](NC(=O)Cc1ccsc1)C(=O)Nc1ccc(C(c2ccc(NC(=O)[C@@H](CCCNC(=N)N)NC(=O)Cc3ccsc3)cc2)c2ccc(NC(=O)[C@@H](CCCNC(=N)N)NC(=O)Cc3ccsc3)cc2)cc1` (stereo partly drawn) [Example 40, tris[4-[N-α-[2-(thiophen-3-yl)acetyl]-D-arginyl]aminophenyl]methane hydrochloride], the Concentration worked out at 12.5 µM and the TPO activity came to 59.0%.

Consider `CN(C)CCCC[C@H](NC(=O)Cc1ccsc1)C(=O)Nc1ccc(C(c2ccc(NC(=O)[C@H](CCCCN(C)C)NC(=O)Cc3ccsc3)cc2)c2ccc(NC(=O)[C@H](CCCCN(C)C)NC(=O)Cc3ccsc3)cc2)cc1` [Example 32, tris[4-[N-α-[2-(thiophen-3-yl)acetyl]-N-ε-dimethyl-L-lysyl]aminophenyl]methane], for which the Concentration turned out to be 25 µM and the TPO activity is reported as 87.1%.

For `N[C@H](CCCCNC(=O)Cc1ccccc1)C(=O)Nc1ccc(C(c2ccc(NC(=O)[C@H](N)CCCCNC(=O)Cc3ccccc3)cc2)c2ccc(NC(=O)[C@H](N)CCCCNC(=O)Cc3ccccc3)cc2)cc1.O=C(O)C(F)(F)F` [Example 187, tris[4-[N-ε-(2-phenylacetyl)-D-lysyl]aminophenyl]methane trifluoroacetate], the Concentration worked out at 25 µM and the TPO activity was 60.2%.

As for `Cl.NCCCC[C@@H](NC(=O)Cc1cccs1)C(=O)Nc1ccc(C(c2ccc(NC(=O)[C@@H](CCCCN)NC(=O)Cc3cccs3)cc2)c2ccc(NC(=O)[C@@H](CCCCN)NC(=O)Cc3cccs3)cc2)cc1` [Example 164, tris[4-[N-α-[2-(thiophen-2-yl)acetyl]-D-lysyl]aminophenyl]methane hydrochloride], the Concentration was found to be 25 µM and the TPO activity is listed as 24.9%.

Consider `COc1ccc2[nH]c(C)c(CC(=O)N[C@@H](CCN)C(=O)Nc3ccc(C(c4ccc(NC(=O)[C@H](CCN)NC(=O)Cc5c(C)[nH]c6ccc(OC)cc56)cc4)c4ccc(NC(=O)[C@H](CCN)NC(=O)Cc5c(C)[nH]c6ccc(OC)cc56)cc4)cc3)c2c1.O=C(O)C(F)(F)F` [Example 133, tris[4-[β-aminomethyl-N-[2-(5-methoxy-2-methyl-1H-indol-3-yl)acetyl]-L-alanyl]aminophenyl]methane trifluoroacetate], for which the Concentration came out at 50 µM and the TPO activity was 89.6%.

Regarding `Cl.NCCCC[C@@H](NC(=O)[C@H](N)Cc1ccc(O)cc1)C(=O)Nc1ccc(C(c2ccc(NC(=O)[C@@H](CCCCN)NC(=O)[C@H](N)Cc3ccc(O)cc3)cc2)c2ccc(NC(=O)[C@@H](CCCCN)NC(=O)[C@H](N)Cc3ccc(O)cc3)cc2)cc1` [Example 160, tris[4-[N-α-(D-tyrosyl)-D-lysyl]aminophenyl]methane hydrochloride], the Concentration was 100 µM and the TPO activity was found to be 22.5%.

`Cl.NCCCC[C@H](NC(=O)Cc1c[nH]c2ccc(O)cc12)C(=O)Nc1ccc(C(c2ccc(NC(=O)[C@H](CCCCN)NC(=O)Cc3c[nH]c4ccc(O)cc34)cc2)c2ccc(NC(=O)[C@H](CCCCN)NC(=O)Cc3c[nH]c4ccc(O)cc34)cc2)cc1` [Example 18, tris[4-[N-α-[2-(5-hydroxy-1H-indol-3-yl)acetyl]-L-lysyl]aminophenyl]methane hydrochloride]: the Concentration came out at 50 µM and the TPO activity is 46.5%.
